One assay has as its system p-CHK1 (Ser345). The experiment in a line: AlphaLISA SureFire Ultra p-CHK1 (Ser345) cellular assay in HT29 cells. It is filed as cell-based. An outline of the steps:
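HT29 cells treated with compounds over a 10-point, 3-fold dilution series for 16 h at 37° C., then lysed; p-CHK1 (Ser345) in lysates measured by AlphaLISA SureFire Ultra (acceptor and donor steps 1 h each at room temperature). IC50 from dose-response curve fits.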

The target of assay [1] is T1, Full-length human Chk1 protein (Homo sapiens, UniProt O14757).
T1 construct: purchased Carna Biosciences, Inc. 02-117
T1 sequence (O14757 1-476): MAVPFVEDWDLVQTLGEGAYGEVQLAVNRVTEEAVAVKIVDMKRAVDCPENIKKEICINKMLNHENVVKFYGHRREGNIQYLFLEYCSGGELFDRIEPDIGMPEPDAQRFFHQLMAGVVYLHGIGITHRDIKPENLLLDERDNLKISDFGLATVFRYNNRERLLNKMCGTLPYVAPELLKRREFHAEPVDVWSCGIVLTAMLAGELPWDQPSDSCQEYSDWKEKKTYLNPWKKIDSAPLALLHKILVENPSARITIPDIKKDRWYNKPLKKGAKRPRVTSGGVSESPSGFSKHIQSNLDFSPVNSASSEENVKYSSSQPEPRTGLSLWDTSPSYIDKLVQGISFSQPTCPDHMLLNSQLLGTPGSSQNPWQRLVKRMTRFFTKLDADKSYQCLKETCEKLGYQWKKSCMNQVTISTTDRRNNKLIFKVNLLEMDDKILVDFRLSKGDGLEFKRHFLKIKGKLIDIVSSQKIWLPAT
The assay can be described thus: Kinase HTRF biochemical assay (HTRF KinEASE), Chk1 enzyme activity. The following applies: full-length human Chk1, ATP 1 mM, 60 minutes at room temperature. A digest of the protocol:
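Full-length human Chk1 (0.012 ng/μL) in buffer with 5 mM MgCl2 and 1 mM DTT, preincubated with compound 10 min at room temperature; reaction with 120 nM biotinylated STK substrate 1 and 1 mM ATP for 60 min at room temperature. HTRF detection via cryptate antibody/streptavidin-XL665; IC50 from 10-point duplicate curves.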
For orientation: Time-resolved FRET reads energy transfer from a long-lived donor to a nearby acceptor.

Where [2] appears, read: Homo sapiens, HT-29, 16 h at 37° C.

The structures appear in SMILES notation.

In the case of `COc1cc(F)cc(O[C@H]2CC[C@H](N)CC2)c1-c1cc(Nc2cnc(C#N)cn2)n[nH]1` [Example 2-4, 5-((5-(2-(((lr,4r)-4-aminocyclohexyl)oxy)-4-fluoro-6-methoxyphenyl)-1 H-pyrazol-3-yl)amino)pyrazine-2-carbonitrile], the results for the IC50 (with p-CHK1 (Ser345) (setting [2]); in assay [1]) were no more than 50 nM and no more than 10 nM, respectively.
With `N#Cc1cnc(Nc2cc(-c3c(F)cccc3O[C@H]3CC[C@H](N)CC3)[nH]n2)cn1` [Example 1-19, 5-((5-(2-(((1r,4r)-4-aminocyclohexyl)oxy)-6-fluorophenyl)-1H-pyrazol-3-yl)amino)pyrazine-2-carbonitrile], the IC50 in the assay on p-CHK1 (Ser345) (setting [2]) lay within 100 to 500 nM; in assay [1], 10 to 100 nM.
For `N#Cc1cnc(Nc2cc(-c3c(F)cccc3O[C@H]3C[C@H](N)C3)[nH]n2)cn1` [Example 1-13, 5-((5-(2-((1r,3r)-3-aminocyclobutoxy)-6-fluorophenyl)-1H-pyrazol-3-yl)amino)pyrazine-2-carbonitrile] the same measures were 100 to 500 nM and 10 to 100 nM.
Turning to `COc1cccc(O[C@H]2CC3(C[C@@H](N)C3)C2)c1-c1cc(Nc2cnc(C#N)cn2)n[nH]1` (some centres unmarked) [Example 3-11, 5-((5-(2-((6-aminospiro[3.3]heptan-2-yl)oxy)-6-methoxyphenyl)-1H-pyrazol-3-yl)amino)pyrazine-2-carbonitrile], the concentration for half-maximal inhibition (IC50) is no more than 50 nM in the assay on p-CHK1 (Ser345) (16 h at 37° C.) and no more than 10 nM in assay [1].
In the case of `N#Cc1cnc(Nc2cc(-c3ccccc3O[C@H]3CC[C@H](N)CC3)[nH]n2)cn1` [Example 1-51, 5-((5-(2-(((1r,4r)-4-aminocyclohexyl)oxy)phenyl)-1H-pyrazol-3-yl)amino)pyrazine-2-carbonitrile], the IC50 in the assay with p-CHK1 (Ser345) (setting [2]) was greater than 1000 nM; in assay [1], 10 to 100 nM.
For `N#Cc1cnc(Nc2cc(-c3ncccc3O[C@H]3C[C@H](N)C3)[nH]n2)cn1` [Example 1-55, 5-((5-(3-((1r,3r)-3-aminocyclobutoxy)pyridin-2-yl)-1H-pyrazol-3-yl)amino)pyrazine-2-carbonitrile] the same measures were 500 to 1000 nM and 10 to 100 nM.
The like results for `COc1cccc(O[C@H]2C[C@@H](N)C2)c1-c1cc(Nc2cnc(C#N)cn2)n[nH]1` [Example 1-4, 5-((5-(2-((1s,3s)-3-aminocyclobutoxy)-6-methoxyphenyl)-1H-pyrazol-3-yl)amino)pyrazine-2-carbonitrile] were, in that order, greater than 1000 nM and 100 to 500 nM.
For `COc1c(Cl)ccc(O[C@@H]2CC[C@H](N)C2)c1-c1cc(Nc2cnc(C#N)cn2)n[nH]1` [Example 4-2, 5-((5-(6-(((1R,3S)-3-aminocyclopentyl)oxy)-3-chloro-2-methoxyphenyl)-1H-pyrazol-3-yl)amino)pyrazine-2-carbonitrile] the same measures were 500 to 1000 nM and 10 to 100 nM.
`N#Cc1cnc(Nc2cc(-c3ccccc3O[C@@H]3CC[C@@H](N)C3)[nH]n2)cn1` [Example 1-53, 5-((5-(2-(((1R,3R)-3-aminocyclopentyl)oxy)phenyl)-1H-pyrazol-3-yl)amino)pyrazine-2-carbonitrile]: the IC50 is 50 to 100 nM with p-CHK1 (Ser345) (setting [2]) and no more than 10 nM in assay [1].
With `COc1cc(F)c(-c2cc(Nc3cnc(C#N)cn3)n[nH]2)c(O[C@@H]2CC[C@H](N)C2)c1` [Example 1-41, 5-((5-(2-(((1R,3S)-3-aminocyclopentyl)oxy)-6-fluoro-4-methoxyphenyl)-1H-pyrazol-3-yl)amino)pyrazine-2-carbonitrile], the half-maximal inhibitory concentration (IC50) with p-CHK1 (Ser345) (setting [2]) is 100 to 500 nM; in assay [1], no more than 10 nM.
The like results for `N#Cc1cnc(Nc2cc(-c3c(F)cccc3O[C@@H]3CC[C@H]3N)[nH]n2)cn1` [Example 3-33, 5-((5-(2-((1R,2R)-2-aminocyclobutoxy)-6-fluorophenyl)-1H-pyrazol-3-yl)amino)pyrazine-2-carbonitrile] were, in that order, 50 to 100 nM and 10 to 100 nM.
For the compound `N#Cc1cnc(Nc2cc(-c3nc(C4CC4)ccc3O[C@@H]3CC[C@H](N)C3)[nH]n2)cn1` [Example 4-5, 5-((5-(3-(((1R,3S)-3-aminocyclopentyl)oxy)-6-cyclopropylpyridin-2-yl)-1H-pyrazol-3-yl)amino)pyrazine-2-carbonitrile], the 50% inhibitory concentration (IC50) with p-CHK1 (Ser345) (setting [2]) was no more than 50 nM; in assay [1] it was no more than 10 nM.
Regarding `N#Cc1cnc(Nc2cc(-c3c(F)cccc3O[C@@H]3CC[C@H](N)C3)[nH]n2)cn1` [Example 1-22, 5-((5-(2-(((1R,3S)-3-aminocyclopentyl)oxy)-6-fluorophenyl)-1H-pyrazol-3-yl)amino)pyrazine-2-carbonitrile], the IC50 with p-CHK1 (Ser345) (setting [2]) was 100 to 500 nM; in assay [1] it was 10 to 100 nM.
As for `CN[C@@H]1CC[C@@H](Oc2cc(Cl)cc(F)c2-c2cc(Nc3cnc(C#N)cn3)n[nH]2)C1` [Example 3-25, 5-((5-(4-chloro-2-fluoro-6-(((1R,3R)-3-(methylamino)cyclopentyl)oxy)phenyl)-1H-pyrazol-3-yl)amino)pyrazine-2-carbonitrile], the 50% inhibitory concentration (IC50) in the assay with p-CHK1 (Ser345) (setting [2]) lay within 100 to 500 nM; in assay [1] it was 10 to 100 nM.
Take `Cc1nc(Nc2cc(-c3ccccc3O[C@@H]3CC[C@H](N)C3)[nH]n2)cnc1C#N` [Example 1-40, 5-((5-(2-(((1R,3S)-3-aminocyclopentyl)oxy)phenyl)-1H-pyrazol-3-yl)amino)-3-methylpyrazine-2-carbonitrile]: the half-maximal inhibitory concentration (IC50) in the assay on p-CHK1 (Ser345) (setting [2]) is greater than 1000 nM; in assay [1], 100 to 500 nM.
For `N#Cc1cnc(Nc2cc(-c3c(F)cccc3O[C@H]3CCCC[C@H](N)C3)[nH]n2)cn1` [Example 3-38, 5-((5-(2-(((1S,3S)-3-aminocycloheptyl)oxy)-6-fluorophenyl)-1H-pyrazol-3-yl)amino)pyrazine-2-carbonitrile] the same measures were 50 to 100 nM and no more than 10 nM.
Turning to `N#Cc1cnc(Nc2cc(-c3ncccc3O[C@@H]3CC[C@@H](N)C3)[nH]n2)cn1` (stereo in doubt) [Example 1-59, 5-((5-(3-(((1R,3R)-3-aminocyclopentyl)oxy)pyridin-2-yl)-1H-pyrazol-3-yl)amino)pyrazine-2-carbonitrile], the 50% inhibitory concentration (IC50) in the assay on p-CHK1 (Ser345) (setting [2]) was greater than 1000 nM; in assay [1] it was 100 to 500 nM.
The like results for `COc1ccc(F)c(O[C@@H]2CC[C@H](N)C2)c1-c1cc(Nc2cnc(C#N)cn2)n[nH]1` [Example 1-27, 5-((5-(2-(((1R,3S)-3-aminocyclopentyl)oxy)-3-fluoro-6-methoxyphenyl)-1H-pyrazol-3-yl)amino)pyrazine-2-carbonitrile] were, in that order, 100 to 500 nM and 10 to 100 nM.
In the case of `N#Cc1cnc(Nc2cc(-c3cccc(Cl)c3O[C@@H]3CC[C@H](N)C3)[nH]n2)cn1` [Example 3-14, 5-((5-(2-(((1R,3S)-3-aminocyclopentyl)oxy)-3-chlorophenyl)-1H-pyrazol-3-yl)amino)pyrazine-2-carbonitrile], the values for the IC50 (in the assay on p-CHK1 (Ser345) (setting [2]); in assay [1]) were greater than 1000 nM and 500 to 1000 nM, respectively.
As for `CN[C@@H]1CC[C@@H](Oc2ccccc2-c2cc(Nc3cnc(C#N)cn3)n[nH]2)C1` [Example 1-42, 5-((5-(2-(((1R,3R)-3-(methylamino)cyclopentyl)oxy)phenyl)-1H-pyrazol-3-yl)amino)pyrazine-2-carbonitrile], the IC50 in the assay on p-CHK1 (Ser345) (setting [2]) lay within 50 to 100 nM; in assay [1], 10 to 100 nM.
The like results for `Cc1cc(-c2cc(Nc3cnc(C#N)cn3)n[nH]2)c(O[C@@H]2CC[C@@H](N)C2)cc1F` [Example 3-27, 5-((5-(2-(((1R,3R)-3-aminocyclopentyl)oxy)-4-fluoro-5-methylphenyl)-1H-pyrazol-3-yl)amino)pyrazine-2-carbonitrile] were, in that order, 50 to 100 nM and no more than 10 nM.
The like results for `Cc1cc(F)c(-c2cc(Nc3cnc(C#N)cn3)n[nH]2)c(O[C@@H]2CC[C@H](N)C2)c1` [Example 5-2, 5-((5-(2-(((1R,3S)-3-aminocyclopentyl)oxy)-6-fluoro-4-methylphenyl)-1H-pyrazol-3-yl)amino)pyrazine-2-carbonitrile] were, in that order, 100 to 500 nM and 10 to 100 nM.
For the compound `COc1cccc(O[C@@H]2CC[C@H](N(C)C)C2)c1-c1cc(Nc2cnc(C#N)cn2)n[nH]1` [Example 1-49, 5-((5-(2-(((1R,3S)-3-(dimethylamino)cyclopentyl)oxy)-6-methoxyphenyl)-1H-pyrazol-3-yl)amino)pyrazine-2-carbonitrile], the IC50 with p-CHK1 (Ser345) (setting [2]) was no more than 50 nM; in assay [1], no more than 10 nM.
The like results for `Cc1ccc(O[C@H]2C[C@H](N)C2)c(-c2cc(Nc3cnc(C#N)cn3)n[nH]2)n1` [Example 1-62, 5-((5-(3-((1r,3r)-3-aminocyclobutoxy)-6-methylpyridin-2-yl)-1H-pyrazol-3-yl)amino)pyrazine-2-carbonitrile] were, in that order, 100 to 500 nM and 10 to 100 nM.
The like results for `COc1cc(Cl)cc(O[C@@H]2CC[C@H](N)C2)c1-c1cc(Nc2cnc(C#N)cn2)n[nH]1` [Example 1-29, 5-((5-(2-(((1R,3S)-3-aminocyclopentyl)oxy)-4-chloro-6-methoxyphenyl)-1H-pyrazol-3-yl)amino)pyrazine-2-carbonitrile] were, in that order, 100 to 500 nM and no more than 10 nM.

As a reminder, the IC50 is the concentration at which inhibition is half-maximal. A lower IC50 goes with greater potency in that assay.

(Values after patent publication US11707462B2, “Checkpoint kinase 1 (CHK1) inhibitors and uses thereof” (Boundless Bio, Inc., priority 2021, dated 2023).)
